From paper PMC6858497 (The Journal of physiology, 2019)
Where “and” joins values, the source holds several entries; their conditions need not be identical. Identical values can stand only once. Like-named read-outs stand apart in the source and are kept apart here.

Columns and labels:
[1] = target: GluN1–1a/2BC1/2DC2 (Rattus norvegicus, UniProt P35439+Q00959+Q00960+Q62645, A876H/F846L/G856D/H848F/K857R/M851T/M860L/Q845K/R869K/V861L/V866F); experiment: Two-electrode voltage-clamp recordings, Xenopus oocytes; assay type: cell-based; settings: for Spermine modulation (% control): 100 μM spermine, −20 mV
[2] = target: GluN1–1b/2B (Rattus norvegicus, UniProt P35439+Q00960); experiment: as above; assay type: cell-based; settings: isoform 1b
[3] = target: GluN1–1a/2B (Rattus norvegicus, UniProt P35439+Q00960); experiment: as above; assay type: cell-based; settings: for Spermine modulation (% control): 100 μM spermine, −20 mV
Chain of GluN1–1a/2B (Q00960 27-1482, other chains not shown): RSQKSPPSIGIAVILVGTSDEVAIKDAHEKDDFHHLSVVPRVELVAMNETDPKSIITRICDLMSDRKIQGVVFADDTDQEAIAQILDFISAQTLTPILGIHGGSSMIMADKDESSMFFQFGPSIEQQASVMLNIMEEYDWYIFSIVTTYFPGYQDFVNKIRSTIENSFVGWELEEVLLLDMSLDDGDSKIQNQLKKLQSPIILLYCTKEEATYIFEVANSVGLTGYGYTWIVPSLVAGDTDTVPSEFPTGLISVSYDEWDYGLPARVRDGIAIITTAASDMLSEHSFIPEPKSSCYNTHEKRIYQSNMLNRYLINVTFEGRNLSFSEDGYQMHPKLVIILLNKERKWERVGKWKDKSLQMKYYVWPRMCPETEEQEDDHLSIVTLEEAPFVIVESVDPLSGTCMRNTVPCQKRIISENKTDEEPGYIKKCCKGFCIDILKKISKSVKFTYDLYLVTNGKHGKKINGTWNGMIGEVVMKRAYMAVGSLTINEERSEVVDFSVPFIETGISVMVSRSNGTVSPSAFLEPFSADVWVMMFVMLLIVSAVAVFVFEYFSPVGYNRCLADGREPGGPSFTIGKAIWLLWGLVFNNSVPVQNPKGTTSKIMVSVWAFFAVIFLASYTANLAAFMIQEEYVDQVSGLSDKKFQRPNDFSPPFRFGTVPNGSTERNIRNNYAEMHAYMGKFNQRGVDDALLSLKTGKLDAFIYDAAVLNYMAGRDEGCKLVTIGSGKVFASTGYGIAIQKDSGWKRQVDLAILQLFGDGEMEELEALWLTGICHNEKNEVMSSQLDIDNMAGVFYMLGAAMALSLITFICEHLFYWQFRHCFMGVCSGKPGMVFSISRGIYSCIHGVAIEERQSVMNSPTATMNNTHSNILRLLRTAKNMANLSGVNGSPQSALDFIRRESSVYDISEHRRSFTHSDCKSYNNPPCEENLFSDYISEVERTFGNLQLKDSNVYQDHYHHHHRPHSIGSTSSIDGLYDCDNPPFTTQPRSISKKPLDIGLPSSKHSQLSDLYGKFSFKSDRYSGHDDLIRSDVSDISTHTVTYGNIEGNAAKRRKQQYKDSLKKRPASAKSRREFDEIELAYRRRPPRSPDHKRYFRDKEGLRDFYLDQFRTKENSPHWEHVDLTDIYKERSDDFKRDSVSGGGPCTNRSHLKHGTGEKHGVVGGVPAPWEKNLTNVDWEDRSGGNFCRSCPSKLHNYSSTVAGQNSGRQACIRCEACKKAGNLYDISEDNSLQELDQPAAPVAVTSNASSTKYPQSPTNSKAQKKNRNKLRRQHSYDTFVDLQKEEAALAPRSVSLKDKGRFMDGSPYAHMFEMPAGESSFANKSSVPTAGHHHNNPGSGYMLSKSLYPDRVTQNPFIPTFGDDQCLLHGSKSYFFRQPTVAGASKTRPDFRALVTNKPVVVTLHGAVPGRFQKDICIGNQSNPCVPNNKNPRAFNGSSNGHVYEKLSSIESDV

[4] = target: GluN1–1b/2BC1/2DC2 (Rattus norvegicus, UniProt P35439+Q00959+Q00960+Q62645, A876H/F846L/G856D/H848F/K857R/M851T/M860L/Q845K/R869K/V861L/V866F); experiment: as above; assay type: cell-based; settings: isoform 1b
[5] = test system: NMDA receptors in cerebellar Golgi cells (thought to be mainly GluN1/2B/2D); settings: single-channel recordings, outside-out patches; ref Brickley et al., 2003; cited from earlier work
[6] = target: GluN1–1a/2D (Rattus norvegicus, UniProt P35439+Q62645); experiment: Two-electrode voltage-clamp recordings, Xenopus oocytes; assay type: cell-based; settings: for Spermine modulation (% control): 100 μM spermine, −20 mV
Chain of GluN1–1a/2D (Q62645 28-1323, other chains not shown): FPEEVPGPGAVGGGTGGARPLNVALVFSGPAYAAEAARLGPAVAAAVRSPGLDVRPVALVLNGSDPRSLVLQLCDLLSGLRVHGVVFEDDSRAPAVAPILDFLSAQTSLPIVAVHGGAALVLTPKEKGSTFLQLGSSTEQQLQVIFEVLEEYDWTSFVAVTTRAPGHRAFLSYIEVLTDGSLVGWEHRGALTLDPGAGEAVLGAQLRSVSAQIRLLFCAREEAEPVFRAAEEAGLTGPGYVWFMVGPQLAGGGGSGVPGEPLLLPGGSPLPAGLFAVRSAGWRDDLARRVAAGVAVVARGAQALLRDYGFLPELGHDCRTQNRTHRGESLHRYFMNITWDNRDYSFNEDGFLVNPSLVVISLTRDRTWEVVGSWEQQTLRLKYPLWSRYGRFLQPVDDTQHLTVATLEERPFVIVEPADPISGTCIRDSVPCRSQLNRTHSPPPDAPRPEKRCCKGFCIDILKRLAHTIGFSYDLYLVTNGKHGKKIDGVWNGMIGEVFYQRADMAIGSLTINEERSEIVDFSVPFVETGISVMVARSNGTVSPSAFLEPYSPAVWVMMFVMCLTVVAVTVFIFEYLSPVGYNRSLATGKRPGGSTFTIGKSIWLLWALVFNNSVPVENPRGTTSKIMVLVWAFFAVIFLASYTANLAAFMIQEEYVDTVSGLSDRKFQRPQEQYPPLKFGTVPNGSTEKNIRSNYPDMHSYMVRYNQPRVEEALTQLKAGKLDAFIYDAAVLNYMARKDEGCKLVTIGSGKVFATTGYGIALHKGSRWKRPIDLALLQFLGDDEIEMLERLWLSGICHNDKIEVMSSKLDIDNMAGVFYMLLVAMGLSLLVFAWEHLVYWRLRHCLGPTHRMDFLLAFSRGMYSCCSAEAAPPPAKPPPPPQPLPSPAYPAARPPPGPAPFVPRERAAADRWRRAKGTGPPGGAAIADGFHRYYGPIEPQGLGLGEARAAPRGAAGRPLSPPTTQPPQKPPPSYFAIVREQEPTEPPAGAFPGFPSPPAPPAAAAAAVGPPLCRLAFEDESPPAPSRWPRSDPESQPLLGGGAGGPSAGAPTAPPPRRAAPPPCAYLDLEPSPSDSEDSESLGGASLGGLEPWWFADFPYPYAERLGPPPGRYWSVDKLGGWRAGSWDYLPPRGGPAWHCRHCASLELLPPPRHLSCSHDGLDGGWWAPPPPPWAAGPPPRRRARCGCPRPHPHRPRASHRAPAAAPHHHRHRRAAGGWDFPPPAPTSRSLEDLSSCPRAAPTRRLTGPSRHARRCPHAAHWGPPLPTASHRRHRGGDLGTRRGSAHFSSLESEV

[7] = target: GluN1–1a/2AC1/2BC2 (Rattus norvegicus, UniProt P35439+Q00959+Q00960, A876H/F846L/G856D/H848F/K857R/M851T/M860L/Q845K/V861L); settings: 100 μM spermine, −20 mV
[8] = target: GluN1–1a/2A (Rattus norvegicus, UniProt P35439+Q00959); settings: 100 μM spermine, −20 mV
Chain of GluN1–1a/2A (Q00959 23-1464, other chains not shown): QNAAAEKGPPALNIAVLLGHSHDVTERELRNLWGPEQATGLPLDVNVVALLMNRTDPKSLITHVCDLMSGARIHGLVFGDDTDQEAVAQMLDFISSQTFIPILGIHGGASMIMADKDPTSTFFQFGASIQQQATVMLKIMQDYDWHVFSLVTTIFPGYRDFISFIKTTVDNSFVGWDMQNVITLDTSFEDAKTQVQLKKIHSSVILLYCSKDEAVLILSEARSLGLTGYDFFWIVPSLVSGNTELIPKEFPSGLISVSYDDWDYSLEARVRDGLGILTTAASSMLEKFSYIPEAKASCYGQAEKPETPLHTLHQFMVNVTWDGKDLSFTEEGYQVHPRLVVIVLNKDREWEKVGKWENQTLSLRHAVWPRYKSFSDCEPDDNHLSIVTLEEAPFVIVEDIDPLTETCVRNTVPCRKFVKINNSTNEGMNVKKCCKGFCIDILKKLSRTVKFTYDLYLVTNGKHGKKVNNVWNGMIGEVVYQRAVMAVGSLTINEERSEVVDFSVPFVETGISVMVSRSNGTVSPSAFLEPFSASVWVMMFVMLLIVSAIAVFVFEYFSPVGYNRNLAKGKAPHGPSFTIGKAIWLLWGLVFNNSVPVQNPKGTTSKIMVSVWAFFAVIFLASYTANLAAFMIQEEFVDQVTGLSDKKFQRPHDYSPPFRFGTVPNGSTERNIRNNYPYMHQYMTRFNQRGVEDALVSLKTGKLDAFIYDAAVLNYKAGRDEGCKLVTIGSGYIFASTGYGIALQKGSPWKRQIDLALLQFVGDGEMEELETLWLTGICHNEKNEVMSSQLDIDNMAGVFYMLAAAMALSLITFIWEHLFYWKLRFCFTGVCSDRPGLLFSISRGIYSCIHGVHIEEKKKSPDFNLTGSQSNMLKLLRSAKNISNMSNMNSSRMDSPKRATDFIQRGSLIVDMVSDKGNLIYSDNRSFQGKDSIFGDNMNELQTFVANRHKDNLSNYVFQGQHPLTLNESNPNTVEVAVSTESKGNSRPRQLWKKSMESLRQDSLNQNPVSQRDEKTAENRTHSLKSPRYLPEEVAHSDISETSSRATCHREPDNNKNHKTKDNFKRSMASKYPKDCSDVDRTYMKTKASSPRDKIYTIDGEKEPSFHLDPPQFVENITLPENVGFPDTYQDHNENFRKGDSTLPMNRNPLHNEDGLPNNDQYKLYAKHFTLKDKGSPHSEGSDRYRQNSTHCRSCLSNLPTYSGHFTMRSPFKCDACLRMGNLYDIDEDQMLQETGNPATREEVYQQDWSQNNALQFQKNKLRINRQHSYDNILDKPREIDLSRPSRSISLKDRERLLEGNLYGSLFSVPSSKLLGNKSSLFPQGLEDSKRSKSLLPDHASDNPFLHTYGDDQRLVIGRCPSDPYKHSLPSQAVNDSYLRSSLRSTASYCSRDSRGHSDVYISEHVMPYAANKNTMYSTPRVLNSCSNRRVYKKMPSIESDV

[9] = test system: NMDAR-EPSCs in hippocampal interneurons (CA1 s.r./s.l.m.); experiment: Whole-cell patch-clamp of NMDAR-EPSCs in acute hippocampal slices; assay type: cell-based, mouse
[10] = test system: NMDAR-EPSCs in hippocampal CA1 pyramidal cells; experiment: as above; assay type: cell-based, mouse; settings: 100 μM; +40 mV; P21–28 slices
[11] = at 100 μM, pH 7.4, holding potential −20 mV, isoform 1a

## CC(C(O)c1ccc(O)cc1)N1CCC(Cc2ccccc2)CC1 (centres unmarked) [ifenprodil]
[1]; inhibition, isoform 1a
  nH (Hill coefficient): 1.1
[1]; isoform 1a
  maximal inhibition: ~ 65%
[2]; inhibition
  nH (Hill coefficient): 1.8
[2]
  maximal inhibition: 88%
[3]; inhibition, isoform 1a
  nH (Hill coefficient): 1.1
[3]; isoform 1a
  maximal inhibition: ~ 95%
[4]; inhibition
  nH (Hill coefficient): 1.1
[4]
  maximal inhibition: 69%
[5]
  IC50: 129 nM
  maximal inhibition: 71.5%

## NCCCNCCCCNCCCN [spermine]
[6]; pH 6.8
  Spermine modulation (% control): 82 ± 1 % control
[6]; pH 7.4
  Spermine modulation (% control): 71 ± 0.4 % control
[6]; pH 7.4, listed as Spermine
  Spermine modulation (% control): 71 % control
[6]; [11]
  Relative Imax: 71 ± 0.4%
[1]; pH 6.8
  Spermine modulation (% control): 233 ± 10 % control
[1]; pH 7.4
  Spermine modulation (% control): 150 ± 2 % control
[1]; pH 7.4, listed as Spermine
  Spermine modulation (% control): 150 % control
[1]; [11]
  Relative Imax: 150 ± 2%
[3]; pH 6.8
  Spermine modulation (% control): 585 ± 29 % control
[3]; pH 7.4
  Spermine modulation (% control): 211 ± 6 % control
[3]; pH 7.4, listed as Spermine
  Spermine modulation (% control): 211 % control
[3]; [11]
  Relative Imax: 211 ± 6%
[7]; pH 6.8
  Spermine modulation (% control): 95 ± 0.1 % control
[7]; pH 7.4
  Spermine modulation (% control): 80 ± 1 % control
[8]; pH 6.8
  Spermine modulation (% control): 79 ± 1 % control
[8]; pH 7.4
  Spermine modulation (% control): 72 % control and 72 ± 1 % control
[9]; 100 μM, +40 mV, P21–28 slices
  NMDAR-EPSC peak amplitude, % of baseline: 137 ± 13 % of baseline
[9]; treatment versus baseline, paired t test, 10 μM (spermine 100 μM)
  effect on EPSC decay time: unchanged
[10]
  NMDAR-EPSC peak amplitude, % of baseline: 95 ± 5 % of baseline
